Publication PMC5863483, “Low HLA binding of diabetes-associated CD8+ T-cell epitopes is increased by post translational modifications” (BMC Immunology, 2018)
Where two headings read alike, the source gives them in different places. Each block holds one compound with its values, some of them ahead of it. Where no end group is shown, it is not given here.

Experiments:
[1] = target: HLA-B*07:02 (Homo sapiens, UniProt P01889); assay: HLA-peptide competition binding assay, B*07:02; details: read-out: IC50 nM, target assay B*07:02
[2] = target: HLA-A*24:02 (Homo sapiens, UniProt P04439, D101N/D140Y/D185E/E176V/E190D/F33S/G103R/G107R/I119L/I121M/I306V/K335N/L105A/L180Q/L300P/N151K/N90K/Q86E/Q94H/R106L/R138H/R89G/T104I/T345S/V100E/W191G/Y123F); assay: HLA-peptide competition binding assay, A*24:02; details: read-out: IC50 nM, target assay A*24:02
[3] = target: HLA-A*02:01 (Homo sapiens, UniProt P04439, D140Y/D185E/D98H/E176V/E277Q/G131W/G231S/I119V/I121R/I166T/I218V/L300P/L318F/N151K/N90K/P208A/P217A/Q86G/Q94H/R138H/R169H/T345S); assay: HLA-peptide competition binding assay, A*02:01
[4] = target: HLA-A*01:01 (Homo sapiens, UniProt P04439, A114D/A174V/A182V/D101N/D185E/E176A/E190D/L180R/Q94H/R68K/S129P/T187R/V100A/V91M/W191G); assay: HLA-peptide competition binding assay, A*01:01; details: read-out: IC50 nM, target assay A*01:01
[5] = target: HLA-B*08:01 (Homo sapiens, UniProt P01889, A93T/A95T/D138N/E176V/E187T/K202T/Q94N/R180D/S35A/V36M/Y33D/Y91F); assay: biochemical
Procedure: The 138 peptides were tested for their capacity to bind their respective HLA class I restricting allele(s) in classical competition assays based on the inhibition of the binding of high affinity radiolabeled ligands to purified major histocompatibility (MHC) molecules, as described in the Methods. In instances where the precise restriction was not available, binding to the most common representative subtype from the same allele family was assayed (e.g., A*02:01 for A02; B*07:02 for B7; A*03:01 for A03, etc.). For epitopes reported to be restricted by multiple alleles, each restriction is shown separately.
Peptide-MHC affinities were measured using classical competition assays based on the inhibition of binding of a high affinity radiolabeled ligand to purified HLA class I molecules, as previously described. Briefly, 0.1–1 nM of radiolabeled peptide is co-incubated at room temperature with purified MHC in the presence of a cocktail of protease inhibitors. Following a two-day incubation, MHC bound radioactivity is determined by capturing MHC/peptide complexes on W6/32 (anti-HLA class I) mAb coated Lumitrac 600 plates (Greiner Bio-one, Frickenhausen, Germany), and bound cpm measured using the TopCount (Packard Instrument Co., Meriden, CT) microscintillation counter. […] Under the conditions utilized, where [label] < [MHC] and IC50 ≥ [MHC], measured IC50 values are reasonable approximations of true Kd. Each competitor peptide is tested at six different concentrations covering a 100,000-fold range, and in three or more independent experiments. As a positive control, the unlabeled version of the radiolabeled probe is also tested in each experiment.

[6] = target: HLA-A*11:01 (Homo sapiens, UniProt P04439, A114D/D185E/E176A/F33Y/L180Q/S129P/T187R); assay: HLA-peptide competition binding assay, A*11:01; details: read-out: IC50 nM, target assay A*11:01
[7] = target: HLA-A*03:01 (Homo sapiens, UniProt P04439); assay: HLA-peptide competition binding assay, A*03:01
[8] = target: HLA-B*51:01 (Homo sapiens, UniProt P01889, A329T/A93T/A95T/C349S/D138N/D201E/D98Y/E187L/E204Q/E69T/G107R/I218V/K202T/L105A/L119W/N104I/Q94N/R106L/R155S/R180L/S101N/S121T/S35A/S48A/V306I/V36M/Y195H/Y91F); assay: HLA-peptide competition binding assay, B*51:01; details: read-out: IC50 nM, target assay B*51:01
[9] = target: HLA-B*35:01 (Homo sapiens, UniProt P01889, A329T/A93T/A95T/C349S/D201E/D98Y/E176V/E187L/E204Q/E69T/I218V/K202T/L119I/Q94N/R155S/R180L/S121R/S35A/S48A/T118I/V127L/V306I/V36M/Y140S/Y91F); assay: HLA-peptide competition binding assay, B*35:01; details: read-out: IC50 nM, target assay B*35:01
[10] = target: HLA-B*18:01 (Homo sapiens, UniProt P01889, A329T/A93T/A95T/C349S/D201E/D54G/D98Y/E176V/E187T/E204Q/E69T/K202T/Q94N/R155S/R180L/S121R/V306I/Y140S/Y195H/Y33H/Y91S); assay: HLA-peptide competition binding assay, B*18:01; details: read-out: IC50 nM, target assay B*18:01
[11] = read-out: A*02:01 binding (IC50 nM) WT
[12] = read-out: IC50 nM, target assay A*02:01
[13] = unmodified (WT) insulin peptide, competition binding assay, a dash indicates IC50 >40,000 nM, read-out: A*02:01 binding (IC50 nM) WT
[14] = read-out: IC50 nM, target assay A*03:01
[15] = read-out: A*02:01 binding (IC50 nM) Modified

IC50 [1]: 1250 nM
Compound: CC(C)C[C@H](NC(=O)[C@H](CCC(N)=O)NC(=O)[C@H](CC(N)=O)NC(=O)[C@H](Cc1ccccc1)NC(=O)[C@H](Cc1ccc(O)cc1)NC(=O)[C@H](CCCNC(=N)N)NC(=O)[C@@H]1CCCN1C(=O)[C@@H](N)Cc1c[nH]cn1)C(=O)N[C@@H](CO)C(=O)N[C@H](C(=O)O)[C@@H](C)O

IC50 [2]: 5250 nM
IC50 [3, 11]: 13400 nM
Compound: CC(C)C[C@H](NC(=O)[C@H](Cc1ccc(O)cc1)NC(=O)[C@@H](N)CC(C)C)C(=O)N[C@H](C(=O)N[C@@H](CS)C(=O)NCC(=O)N[C@@H](CCC(=O)O)C(=O)N[C@@H](CCCNC(=N)N)C(=O)NCC(=O)N[C@@H](Cc1ccccc1)C(=O)O)C(C)C [reference compound]

IC50 [2]: 15100 nM
IC50 [4]: > 40000 nM
Compound: ALWGPDPAAAF

IC50 [1]: 3860 nM
Compound: IPSDLERRIL

IC50 [8]: 1160 nM
IC50 [9]: 12300 nM
IC50 [1]: 610 nM
Compound: LPLLALLAL [LPLLALLAL]

IC50 [6]: 27200 nM
IC50 [4]: > 40000 nM
IC50 [3, 11]: 23200 nM
IC50 [7, 14]: 27400 nM
Compound: LVCGERGFFY

IC50 [2]: 545 nM
IC50 [3, 11]: 266 nM
Compound: LWMRLLPLL [reference compound]

IC50 [6]: > 40000 nM
Compound: MFPEVKEKG

IC50 [2]: 10200 nM
IC50 [3, 12]: 145 nM
Compound: RLLPLLALL [reference compound]

IC50 [9]: > 40000 nM
Compound: TSEHSHFSL

IC50 [3, 12]: 4.2 nM
Compound: WLLPLWAAL [WLLPLWAAL, reference compound]

IC50 [3, 12]: 57 nM
Compound: YLLLRVLNI [reference compound]

IC50 [3, 11]: 1400 nM
Compound: YLVCGERGFF

IC50 [3, 15]: 10800 nM
Compound: YLVCGERGY

IC50 [3, 13]: > 40000 nM
Compound: YTPKTRREA

IC50 [3, 13]: > 40000 nM
Compound: YTPKTRREAE

Further lines, the compound ahead of its results:

Compound: ALWMRLLPL [reference compound]
IC50 [5]: 0.107 µM
IC50 [3, 12]: 218 nM

Compound: ALWMRLLPLL
IC50 [2]: 6180 nM
IC50 [5]: 0.033 µM
IC50 [3, 12]: 190 nM

Compound: ALYLVCGER
IC50 [6]: 28300 nM
IC50 [3]: 1790 nM
IC50 [7]: 2790 nM

Compound: APVIKARMM
IC50 [1]: 18200 nM

Compound: ERGFFYTPK [reference compound]
IC50 [3, 13]: > 40000 nM
IC50 [7, 14]: > 40000 nM

Compound: FYTPKTRRE [reference compound]
IC50 [5]: 13 µM
IC50 [3, 13]: > 40000 nM

Compound: GERGFFYT
IC50 [5]: 1.38 µM
IC50 [4]: > 40000 nM

Compound: GSHLVEALY [reference compound]
IC50 [4]: 30300 nM
IC50 [3, 11]: 3960 nM

Compound: PLALEGSLQK
IC50 [7]: > 40000 nM

Compound: PLLALLALWG
IC50 [7, 14]: > 40000 nM

Compound: RFKMFPEVK
IC50 [6]: 18300 nM

Compound: SASVQRADTSL
IC50 [1]: 11 nM

Compound: SLQPLALEG [reference compound]
IC50 [3, 12]: > 40000 nM
IC50 [7, 14]: > 40000 nM

Compound: VCGERGFFYT
IC50 [5]: > 40 µM
IC50 [10]: 626 nM
IC50 [4]: > 40000 nM
IC50 [3, 12]: > 40000 nM
IC50 [3, 13]: > 40000 nM

Compound: WLLPLWAALPL [reference compound]
IC50 [3, 12]: 3.2 nM

Compound: WMRLLPLLA
IC50 [3]: 1530 nM

Compound: WMRLLPLLAL [WMRLLPLLAL, reference compound]
IC50 [1]: 2360 nM
IC50 [3]: 654 nM

Compound: YIPSCTVVGM [reference compound]
IC50 [3, 12]: 9510 nM

Compound: YLVCGERGF
IC50 ([3]; unmodified (wild type) insulin-derived peptide, radiolabeled ligand competition, purified MHC, two-day incubation, three or more independent experiments, read-out: A*02:01 binding, WT): 6740 nM

Compound: YLVCGERGYF
IC50 [3, 15]: 2010 nM
